From US20110136751A1, “Use of Polyphenols in the Treatment of Cancer” (Green Molecular, priority 2009, published 2011)
pIC50: −log10 of the molar value.

Tests used:
Experiment in all cases: IC50 on cell viability, Cell Counting Kit-8
Type in all cases: cell-based
Panc 10 05 = conditions: Homo sapiens, Panc1005; code 33, Panc 10 05, Pancreas Adenocarcinoma; cell viability 120 h after administration
Method: (§1) A panel of 36 human cell lines were first tested in terms of population doubling time and growth curves to determine the conditions for further assays. The cells were also tested to determine the dose of radiation that produces 50% cell viability (D50). […] Cell viability was determined 120 h after the administration of the compounds using the Cell Counting Kit-8 (Dojindo Molecular Technologies, Inc, Rockville, Md.). In the experiments, 0.1% SDS and 1% DMSO were used as positive and negative controls, respectively. Final concentrations of the compounds used in the experiments are listed below in Table 5: […]

SK-MEL-2 = conditions: Homo sapiens; code 25, SK-MEL-2, Skin Melanoma; cell viability 120 h after administration
Method: as §1

A-204 = conditions: Homo sapiens, A204; code 35, A-204, Muscle Rhabdomyosarcoma; cell viability 120 h after administration
Method: as §1

SW-872 = conditions: Homo sapiens, SW872; code 18, SW-872, Connective tissue Fibrosarcoma; cell viability 120 h after administration
Method: as §1

BT-20 = conditions: Homo sapiens; code 1, BT-20, Breast Carcinoma; cell viability 120 h after administration
Method: as §1

Colo 201 = conditions: Homo sapiens; code 5, Colo 201, Colorectal Adenocarcinoma; cell viability 120 h after administration
Method: as §1

HBL-52 = conditions: Homo sapiens; code 19, HBL-52, Brain Meningioma; cell viability 120 h after administration
Method: as §1

A549 = conditions: Homo sapiens; code 22, A549, Lung Carcinoma; cell viability 120 h after administration
Method: as §1

IMR-32 = conditions: Homo sapiens; code 15, IMR-32, Brain Neuroblastoma; cell viability 120 h after administration
Method: as §1

HPAF-II = conditions: Homo sapiens; code 32, HPAF-II, Pancreas Adenocarcinoma; cell viability 120 h after administration
Method: as §1

HCT 116 = conditions: Homo sapiens; code 6, HCT 116, Colorectal Carcinoma; cell viability 120 h after administration
Method: as §1

T-47D = conditions: Homo sapiens, T47D; code 4, T-47D, Breast Carcinoma; cell viability 120 h after administration
Method: as §1

HCT-15 = conditions: Homo sapiens; code 7, HCT-15, Colorectal Adenocarcinoma; cell viability 120 h after administration
Method: as §1

BxPC-3 = conditions: Homo sapiens; code 31, BxPC-3, Pancreas Adenocarcinoma; cell viability 120 h after administration
Method: as §1

MSTO-211H = conditions: Homo sapiens; code 21, MSTO-211H, Lung Biphasic Mesothelioma; cell viability 120 h after administration
Method: as §1

SK-N-AS = conditions: Homo sapiens; code 17, SK-N-AS, Brain Neuroblastoma; cell viability 120 h after administration
Method: as §1

SH-SY5Y = conditions: Homo sapiens; code 16, SH-SY5Y, Brain Neuroblastoma; cell viability 120 h after administration
Method: as §1

HT-1080 = conditions: Homo sapiens; code 9, HT-1080, Fibrosarcoma; cell viability 120 h after administration
Method: as §1

HT-29 = conditions: Homo sapiens; code 8, HT-29, Colorectal Adenocarcinoma; cell viability 120 h after administration
Method: as §1

Panc-1 = conditions: Homo sapiens; code 34, Panc-1, Pancreas Carcinoma Epithiloid; cell viability 120 h after administration
Method: as §1

KHOS-NP = conditions: Homo sapiens; code 28, KHOS-NP, Bone Osteosarcoma; cell viability 120 h after administration
Method: as §1

LN-18 = conditions: Homo sapiens; code 10, LN-18, Brain Gliblastoma; cell viability 120 h after administration
Method: as §1

MML-1 = conditions: Homo sapiens; code 27, MML-1, Skin Melanoma; cell viability 120 h after administration
Method: as §1

CHP-126 = conditions: Homo sapiens; code 14, CHP-126, Brain Neuroblastoma; cell viability 120 h after administration
Method: as §1

MDA-MB-231 = conditions: Homo sapiens; code 3, MDA-MB-231, Breast Adenocarcinoma; cell viability 120 h after administration
Method: as §1

A375 = conditions: Homo sapiens, A-375; code 23, A375, Skin Melanoma; cell viability 120 h after administration
Method: as §1

C32 = conditions: Homo sapiens; code 24, C32, Skin Melanoma; cell viability 120 h after administration
Method: as §1

LN229 = conditions: Homo sapiens, LN-229; code 11, LN229, Brain Gliblastoma; cell viability 120 h after administration
Method: as §1

MCF-7 = conditions: Homo sapiens, MCF7; code 2, MCF-7, Breast Adenocarcinoma; cell viability 120 h after administration
Method: as §1

NCI-H4BO = conditions: Homo sapiens; code 20, NCI-H4BO, Lung Carcinoma; cell viability 120 h after administration
Method: as §1

pIC50 (Panc 10 05) | pIC50 (SK-MEL-2) | pIC50 (SW-872) | pIC50 (BT-20) | pIC50 (Colo 201) | pIC50 (A549) | pIC50 (HCT 116) | pIC50 (T-47D) | pIC50 (HCT-15) | pIC50 (BxPC-3) | pIC50 (SK-N-AS) | pIC50 (SH-SY5Y) | pIC50 (HT-1080) | pIC50 (HT-29) | pIC50 (Panc-1) | SMILES | pIC50 (A-204) | pIC50 (HBL-52) | pIC50 (IMR-32) | pIC50 (HPAF-II) | pIC50 (MSTO-211H) | also measured
4.64 | 4.94 | 5.45 | 5.04 | 4.74 | 4.87 | 4.24 | 4.97 | 4.91 | 4.80 | 4.70 | 5.36 | 5.26 | 4.73 | 4.20 | O=c1c(O)c(-c2ccc(O)c(O)c2)oc2cc(O)cc(O)c12 [QUER, quercetin] | 4.74 | 4.64 | 4.70 | 4.69 | 4.70 | pIC50 (KHOS-NP): 4.80; pIC50 (LN-18): 5.01; pIC50 (MML-1): 4.97; pIC50 (CHP-126): 4.72; pIC50 (MDA-MB-231): 4.68; pIC50 (A375): 4.71; pIC50 (C32): 4.66; pIC50 (LN229): 5.09; pIC50 (MCF-7): 4.70; pIC50 (NCI-H4BO): 5.00
4.62 | 4.97 | 4.09 | 4.18 | 4.43 | 4.79 | 4.50 | 4.59 | < 4.00 | 4.87 | 4.17 | 4.58 | 4.99 | 4.55 | 4.48 | Oc1ccc(/C=C/c2cc(O)cc(O)c2)cc1 [RI, trans-3,5,4′-trihydroxystilbene, reference compound] | 4.72 | 4.54 | 4.37 | 4.07 | 5.20 | pIC50 (KHOS-NP): 4.70; pIC50 (LN-18): 4.55; pIC50 (MML-1): 4.99; pIC50 (CHP-126): 4.57; pIC50 (MDA-MB-231): 4.82; pIC50 (A375): 4.60; pIC50 (C32): 4.73; pIC50 (LN229): 4.95; pIC50 (MCF-7): 4.30; pIC50 (NCI-H4BO): 4.94
4.33 | 4.76 | 4.59 | 4.01 | 4.53 | 4.59 | 4.34 | 4.46 | 4.31 | 4.51 | 4.54 | 4.50 | 4.75 | 4.55 | 4.30 | COc1cc(/C=C/c2ccc(O)cc2)cc(OC)c1 [t-PTER, trans-3,5-dimethoxy-4′-hydroxystilbene] | 4.63 | 4.48 | 4.37 | 4.26 | 4.91 | pIC50 (KHOS-NP): 4.59; pIC50 (LN-18): 4.74; pIC50 (MML-1): 4.77; pIC50 (CHP-126): 5.85; pIC50 (MDA-MB-231): 4.20; pIC50 (A375): 4.12; pIC50 (C32): 4.52; pIC50 (LN229): 4.84; pIC50 (MCF-7): 4.40; pIC50 (NCI-H4BO): 4.78
